Reference: patent US7691805B2, “Antimicrobial compounds” (Neobiotics AB, priority 2004, dated 2010)
In brackets after ≈: the same amount, converted by molar mass.

Key:
[1] = system: CNS incl. resistant and multiresistant MRSE; assay: Agar well diffusion; details: 40 ul of 1 mg/ml in DMSO per well
MRSA = assay: Growth inhibition of clinical isolates; details: approximately 100 strains of MRSA, several with additional resistance markers
S. pneumoniae = assay: Agar well diffusion; details: 40 ul of 1 mg/ml in DMSO per well
[2] = system: α-haemolytic Streptococci; assay: Agar well diffusion; details: 40 ul of 1 mg/ml in DMSO per well
[3] = system: Staphylococci incl. multiresistant MRSA; assay: Agar well diffusion; details: 40 ul of 1 mg/ml in DMSO per well
Streptococcus: group A = assay: Agar well diffusion; details: 40 ul of 1 mg/ml in DMSO per well
L. monocytogenes = assay: Agar well diffusion; details: 40 ul of 1 mg/ml in DMSO per well
Streptococcus: group C = assay: Agar well diffusion; details: 40 ul of 1 mg/ml in DMSO per well
[4] = system: E. coli and other Gram-negatives; assay: Agar well diffusion; details: for antibacterial effect: E. coli and other Gram-negatives, 40 ul of 1 mg/ml in DMSO per well
Streptococcus: group G = assay: Agar well diffusion; details: 40 ul of 1 mg/ml in DMSO per well
Streptococcus: group B = assay: Agar well diffusion; details: 40 ul of 1 mg/ml in DMSO per well
S.aureus = assay: MIC by broth dilution; format: cell-based; details: growth media without DMSO
Description: (§1) MIC/MBC determinations were performed by broth dilution according to established procedures, well known for a person skilled in the art.

labial herpes = assay: Topical application in softening cream to a beginning labial herpes outbreak; format: in vivo, human; details: 0.2 ml solution (0.1 g/l) in softening cream on the lip; performed twice
Description: Cp1 was added to a softening cream and 0.2 ml solution (0.1 g/l) was applied to an area of a beginning labial herpes outbreak on the lip of a person. After 3-4 hours the symptoms was gone. The experiment was performed twice.

Solubility = format: physicochemical; details: KCl gradient eluent during ion exchange isolation
streptococcal challenge = assay: Lethal streptococcal challenge in the mouse; format: in vivo
[5] = system: Aspergillus niger ATCC 16404; assay: Antifungal MIC in Sabouraud broth; format: cell-based; details: 25° C. for 7 days; inoculum 10^3-10^4 cfu/ml
Description: (§2) The minimal inhibitory concentration (MIC) was determined using a method with Sabouraud broth (Becton Dickinson) and an initial inoculum 10^3-10^4 cfu/ml. Polypropylene 96-well plates (Nunc) were incubated at 25° C. for 48 h (for Candida albicans ATCC 10231) or 7 days (for Aspergillus niger ATCC 16404). The MIC was taken as the lowest drug concentration at which noticeable growth was inhibited. The experiments were performed in duplicate.

[6] = system: Candida albicans ATCC 10231; assay: Antifungal MIC in Sabouraud broth; format: cell-based; details: 25° C. for 48 h; inoculum 10^3-10^4 cfu/ml
Description: as §2

GAS = assay: MIC by broth dilution; format: cell-based, group A Streptococci; details: growth media without DMSO
Description: as §1

Compound	antibacterial effect [1]	growth inhibition of MRSA strains (MRSA)	antibacterial effect (S. pneumoniae)	antibacterial effect [2]	antibacterial effect [3]	antibacterial effect (Streptococcus: group A)	antibacterial effect (L. monocytogenes)	antibacterial effect (Streptococcus: group C)	antibacterial effect [4]	antibacterial effect (Streptococcus: group G)	antibacterial effect (Streptococcus: group B)	MIC (S.aureus)	time after which the symptoms were gone (labial herpes)	solubility in the presence of salts (Solubility)	protective capacity for lethal streptococcal challenge (streptococcal challenge)	activity against gram-negative bacteria [4]	MIC Aspergillus niger ATCC 16404 [5]	MIC Candida albicans ATCC 10231 [6]	MIC (GAS)
CC(=O)NC(Cc1ccccc1)C(=O)NCC(NC(=O)C(CC(C)C)NC(=O)C(CCCNC(=N)N)NC(=O)OCc1ccccc1)C(C)C (stereo not drawn) [(AcPhe^5)Cp1]	+	strongly inhibited in their growth	+	−	+	+	+	+	−	+	+								
CC(C)CC(NC(=O)C(CCCN=C(N)N)NC(=O)OCc1ccccc1)C(=O)N[C@H](CNC(=O)/C=C/c1ccccc1)C(C)C (stereo in doubt) [Cp1, (2S)-2-[(N^α-Benzyloxycarbonyl-Arginyl-Leucyl)-Amino]-1-Trans-Cinnamoylamino-3-Methylbutane]	+	strongly inhibited in their growth	+	−	+	+	+	+	−	+	+	approximately 16 mg/L	3 to 4 h	weak solubility	strong protective capacity	low or no activity	64 µg/mL (≈ 101 µM)	32 µg/ml	approximately 16 mg/L
